Key:
SERT = SERT (Homo sapiens, UniProt P31645); assay: Radioligand receptor binding, SERT (antagonist binding); details: radioligand imipramine
Experimental: (§1) Receptor binding is determined for the Compounds of Example 1. The following literature procedures are used, each of which reference is incorporated herein by reference in their entireties: 5-HT2A: Bryant, H. U. et al. (1996), Life Sci., 15:1259-1268; D2: Hall, D. A. and Strange, P. G. (1997), Brit. J. Pharmacol., 121:731-736; D1: Zhou, Q. Y. et al. (1990), Nature, 347:76-80; SERT: Park, Y. M. et al. (1999), Anal. Biochem., 269:94-104; Mu opiate receptor: Wang, J. B. et al. (1994), FEBS Lett., 338:217-222.
(§2) The compound of Example 1 is tested at a concentration of […] in DMSO solution. Compound binding is calculated as the percent inhibition of the binding of a radioactively labeled ligand specific for each target. The control ligands are radiolabeled forms of SCH 23390 (for D1), 7-hydroxy-DPAT (for D2S), racemic DOI (for 5-HT2A and 5-HT2B), veratridine (for sodium channel site 2), protriptyline (for NET) and imipramine (for SERT).
(§3) In general, the results are expressed as a percent of control specific binding:
(§4) [formula] and as a percent inhibition of control specific binding:
(§5) [formula] obtained in the presence of the test compound (compound of Example 1).
(§6) Further pharmacology studies are conducted to determine IC50 values for receptor binding to the 5-HT2A receptor, D1 receptor, and SERT. For each study, the compound of Example 1 is tested at a range of concentrations and compound binding at each concentration is calculated as the percent inhibition of the binding of a radioactively labeled ligand specific for the target. The control ligands are radiolabeled forms of […], racemic DOI (for 5-HT2A), and imipramine (for SERT). The IC50 value is determined by non-linear regression analysis of the competition curve generated with mean replicate values using Hill Equation curve fitting:
(§7) [formula] wherein Y is specific binding, A is the left asymptote of the curve, D is the right asymptote of the curve, C is the compound concentration, and nH is the slope factor. Ki values are calculated using the Cheng Prusoff equation: […]

D2S = D2S (Homo sapiens, UniProt P14416); assay: Radioligand receptor binding, D2S (agonist binding); details: radioligand 7-hydroxy-DPAT
Experimental: as §1, §2, §3, §4, §5, §6, §7

D1 = D1 (Homo sapiens, UniProt P21728); assay: Radioligand receptor binding, D1 (antagonist binding); design: dose or concentration left out as unconfirmed; details: in DMSO solution; radioligand SCH 23390
Experimental: as §1, §2, §3, §4, §5

5-HT2A receptor = 5-HT2A receptor (Homo sapiens, UniProt P28223); assay: Radioligand receptor binding, 5-HT2A (agonist binding); details: radioligand racemic DOI
Experimental: as §1, §2, §3, §4, §5, §6, §7

Sodium channel (site 2) = assay: Radioligand binding, sodium channel site 2 (antagonist binding); details: tested at 1.01.1M in DMSO solution; radioligand veratridine
Experimental: as §2, §3, §4, §5

5-HT2B = 5-HT2B (Homo sapiens, UniProt P41595); assay: Radioligand receptor binding, 5-HT2B (agonist binding); design: dose or concentration left out as unconfirmed; details: in DMSO solution; radioligand racemic DOI
Experimental: as §1, §2, §3, §4, §5

NET = NET (Homo sapiens, UniProt P23975); assay: Radioligand binding, NET (antagonist binding); design: dose or concentration left out as unconfirmed; details: tested in DMSO solution; radioligand protriptyline
Experimental: as §2, §3, §4, §5

[1] = test system: symptoms of emotional experience (negative symptoms of schizophrenia); assay: Clinical studies in patients with acute exacerbated schizophrenia; type: in vivo, human; details: once daily 60 mg P.O., up to 28 days, two clinical studies
Source text: Social avoidance can be a critical and debilitating symptom in patients suffering from anxiety disorders, especially social anxiety disorder, as well as in patients suffering from traumatic anxiety disorders. Social avoidance is often one of the key determinants of whether a person with a severe anxiety disorder is capable of maintaining familial relationships or employment relationships. […] Negative symptoms of schizophrenia can be divided into two categories: emotional experience (e.g., emotional withdrawal, passive social withdrawal, active social avoidance) and emotional expression (e.g., blunted effect, poor rapport, lack of spontaneity, and motor retardation). […] These are the symptoms that are most highly correlated with interpersonal functioning.

[2] = tested at 1.01.1M in DMSO solution

Chain of D2S (P14416 1-414 isoform P14416-2): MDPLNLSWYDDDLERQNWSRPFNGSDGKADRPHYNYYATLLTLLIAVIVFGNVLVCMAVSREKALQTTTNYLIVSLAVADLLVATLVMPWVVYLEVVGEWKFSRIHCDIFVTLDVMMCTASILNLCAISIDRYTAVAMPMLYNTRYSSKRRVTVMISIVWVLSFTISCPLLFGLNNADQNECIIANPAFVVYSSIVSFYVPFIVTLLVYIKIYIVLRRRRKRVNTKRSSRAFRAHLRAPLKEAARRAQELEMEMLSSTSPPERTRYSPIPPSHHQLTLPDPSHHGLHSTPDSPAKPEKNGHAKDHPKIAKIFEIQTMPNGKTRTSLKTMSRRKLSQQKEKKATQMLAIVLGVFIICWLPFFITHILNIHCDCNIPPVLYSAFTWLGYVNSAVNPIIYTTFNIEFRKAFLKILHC
Chain of SERT (P31645 whole entry): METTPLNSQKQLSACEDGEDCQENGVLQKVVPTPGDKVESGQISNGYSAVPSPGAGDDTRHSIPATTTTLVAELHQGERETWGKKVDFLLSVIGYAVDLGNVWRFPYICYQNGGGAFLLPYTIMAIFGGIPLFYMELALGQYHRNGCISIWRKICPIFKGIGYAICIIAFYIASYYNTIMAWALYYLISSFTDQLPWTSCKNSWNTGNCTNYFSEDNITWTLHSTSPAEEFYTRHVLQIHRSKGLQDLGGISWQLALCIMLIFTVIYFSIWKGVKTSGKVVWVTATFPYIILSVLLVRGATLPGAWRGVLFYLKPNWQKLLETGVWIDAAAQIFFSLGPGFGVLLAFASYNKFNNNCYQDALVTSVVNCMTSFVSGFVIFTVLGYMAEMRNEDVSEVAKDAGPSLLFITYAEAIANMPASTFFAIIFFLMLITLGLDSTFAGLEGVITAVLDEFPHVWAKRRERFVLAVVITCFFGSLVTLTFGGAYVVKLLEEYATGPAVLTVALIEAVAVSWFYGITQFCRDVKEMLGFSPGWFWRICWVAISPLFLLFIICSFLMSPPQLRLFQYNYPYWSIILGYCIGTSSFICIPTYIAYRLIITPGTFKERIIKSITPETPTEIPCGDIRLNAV
Chain of 5-HT2A receptor (P28223 whole entry): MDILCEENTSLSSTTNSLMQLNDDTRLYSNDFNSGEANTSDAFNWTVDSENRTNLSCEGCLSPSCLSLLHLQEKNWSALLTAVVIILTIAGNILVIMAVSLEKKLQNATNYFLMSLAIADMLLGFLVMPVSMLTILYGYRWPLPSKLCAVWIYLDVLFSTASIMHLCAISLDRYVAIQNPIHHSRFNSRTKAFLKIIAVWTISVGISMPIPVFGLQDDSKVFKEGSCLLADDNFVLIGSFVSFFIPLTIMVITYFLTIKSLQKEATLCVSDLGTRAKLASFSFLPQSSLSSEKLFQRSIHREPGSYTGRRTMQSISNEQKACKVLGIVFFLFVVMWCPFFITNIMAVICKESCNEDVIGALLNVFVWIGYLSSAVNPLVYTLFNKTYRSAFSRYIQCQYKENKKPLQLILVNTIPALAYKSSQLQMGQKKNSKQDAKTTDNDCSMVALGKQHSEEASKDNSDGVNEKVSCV
Chain of NET (P23975 whole entry): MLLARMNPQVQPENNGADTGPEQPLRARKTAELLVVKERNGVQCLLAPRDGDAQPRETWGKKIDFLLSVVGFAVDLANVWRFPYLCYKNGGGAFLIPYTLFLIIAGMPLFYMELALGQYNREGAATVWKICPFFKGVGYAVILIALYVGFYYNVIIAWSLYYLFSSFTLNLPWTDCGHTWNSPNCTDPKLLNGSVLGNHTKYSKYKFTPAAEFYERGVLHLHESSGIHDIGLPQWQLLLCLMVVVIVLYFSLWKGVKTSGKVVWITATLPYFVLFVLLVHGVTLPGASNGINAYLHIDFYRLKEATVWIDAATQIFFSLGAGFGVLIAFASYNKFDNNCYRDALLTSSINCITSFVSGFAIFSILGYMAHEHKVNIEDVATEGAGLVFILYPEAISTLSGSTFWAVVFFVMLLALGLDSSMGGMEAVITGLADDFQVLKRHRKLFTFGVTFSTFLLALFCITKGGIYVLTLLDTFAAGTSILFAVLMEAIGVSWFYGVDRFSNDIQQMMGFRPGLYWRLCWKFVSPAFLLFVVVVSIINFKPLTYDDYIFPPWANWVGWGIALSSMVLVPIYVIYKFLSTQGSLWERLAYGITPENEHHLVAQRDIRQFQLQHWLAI
Chain of D1 (P21728 whole entry): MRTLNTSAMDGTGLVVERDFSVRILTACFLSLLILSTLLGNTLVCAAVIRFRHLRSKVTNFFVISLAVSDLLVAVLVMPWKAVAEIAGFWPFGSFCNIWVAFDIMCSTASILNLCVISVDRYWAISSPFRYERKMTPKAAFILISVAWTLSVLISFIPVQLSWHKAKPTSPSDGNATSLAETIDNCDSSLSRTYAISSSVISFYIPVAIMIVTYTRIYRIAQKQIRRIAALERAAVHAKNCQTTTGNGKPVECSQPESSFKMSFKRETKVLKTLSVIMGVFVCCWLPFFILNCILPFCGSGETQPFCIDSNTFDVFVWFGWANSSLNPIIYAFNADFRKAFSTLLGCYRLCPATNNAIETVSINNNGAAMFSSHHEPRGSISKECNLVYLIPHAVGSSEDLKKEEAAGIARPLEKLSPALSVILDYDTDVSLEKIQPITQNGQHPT
Chain of 5-HT2B (P41595 whole entry): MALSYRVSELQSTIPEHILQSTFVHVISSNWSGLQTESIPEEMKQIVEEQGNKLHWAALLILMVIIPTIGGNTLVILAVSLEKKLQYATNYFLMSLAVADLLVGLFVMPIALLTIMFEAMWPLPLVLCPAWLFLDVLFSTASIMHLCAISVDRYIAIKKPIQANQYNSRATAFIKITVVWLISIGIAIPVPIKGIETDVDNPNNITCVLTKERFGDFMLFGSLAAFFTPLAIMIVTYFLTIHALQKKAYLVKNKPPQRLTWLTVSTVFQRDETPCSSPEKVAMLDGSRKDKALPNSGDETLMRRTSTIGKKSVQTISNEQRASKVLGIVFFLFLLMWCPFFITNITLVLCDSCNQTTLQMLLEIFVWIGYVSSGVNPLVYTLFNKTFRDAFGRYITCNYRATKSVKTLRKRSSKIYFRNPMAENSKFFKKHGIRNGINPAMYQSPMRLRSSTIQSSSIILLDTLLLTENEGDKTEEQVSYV

Compound	Ki (SERT; Cheng Prusoff equation) [µM]	IC50 (SERT; Hill equation curve fitting) [µM]	% inhibition of control specific binding, SERT (antagonist binding) (SERT; [2]) [%]	Ki (D2S; Cheng Prusoff equation) [µM]	IC50 (D2S; Hill equation curve fitting) [µM]	% inhibition of control specific binding, D2S (agonist binding) (D2S; [2]) [%]	% inhibition of control specific binding, D1 (antagonist binding) (D1) [%]	Ki (5-HT2A receptor; Cheng Prusoff equation) [µM]	IC50 (5-HT2A receptor; Hill equation curve fitting) [µM]	% inhibition of control specific binding, 5-HT2A (agonist binding) (5-HT2A receptor; [2]) [%]	% inhibition of control specific binding, Sodium channel (site 2 antagonist binding) (Sodium channel (site 2)) [%]	% inhibition of control specific binding, 5-HT2B (agonist binding) (5-HT2B) [%]	% inhibition of control specific binding, NET (antagonist binding) (NET) [%]	symptoms of emotional experience compared to placebo [1]
CN1CCN2c3c(cccc31)[C@@H]1CN(CCCC(=O)c3ccc(N4CC[C@H]5[C@@H](C4)c4cccc6c4N5CCN6C)cc3)CC[C@@H]12 [Compound 1, 4-((6bR,10aS)-3-methyl-2,3,6b,9,10,10a-hexahydro-1H-pyrido[3′,4′: 4,5]pyrrolo[1,2,3-de]quinoxalin-8(7H)-yl)-1(4-((6bR,10aS)-3-methyl-2,3,6b,9,10,10a-hexahydro-1H-pyrido[3′,4′: 4,5]pyrrolo[1,2,3-de]quinoxalin-8(7H)-yl)phenyl)butan-1-one]	0.0013	0.0029	99.9	0.072	0.18	80.63	52.3	0.051	0.068	90.8	87.0	87.0	82.9	–
CN1CCN2c3c(cccc31)[C@@H]1CN(CCCC(=O)c3ccc(F)cc3)CC[C@@H]12 [lumateperone, 4-((6bR,10aS)-3-methyl-2,3,6b,9,10,10a-hexahydro-1H-pyrido[3′,4′: 4,5]pyrrolo[1,2,3-de]quinoxalin-8(7H)-yl)-1-(4-fluorophenyl)-1-butanone]	–	–	–	–	–	–	–	–	–	–	–	–	–	significant and unexpected improvement

— patent US12410195B2, “Pharmaceutical compositions comprising 4-((6bR,10aS)-3-methyl-2,3,6b,9,10,10a-hexahydro-1H-pyrido[3′,4′:4,5]pyrrolo[1,2,3-de]quinoxalin-8(7H)-yl)-1-(4-((6bR,10aS)-3-methyl-2,3,6b,9,10,10a-hexahydro-1H-pyrido[3′,4′:4,5]pyrrolo[1,2,3-de]quinoxalin-8(7H)-yl)phenyl)butan-1-one for treating conditions …” (INTRA-CELLULAR THERAPIES, INC., priority 2019, dated 2025)
